Values after ≈ are worked out from the molar mass of the structure shown.
Experiments:
[1] = system: S. epidermidis ATCC 12228; assay: Minimum bactericidal concentration (MBC), plating of broth dilution tubes; assay type: cell-based, Staphylococcus epidermidis
Experimental: The MBC is another parameter used to assess the usefulness of an antibacterial. It provides some measure of the concentration of agent required to kill bacteria, not just inhibit their growth. In this test, 10 μL of media from each tube were plated on trypticase soy agar (TSA) plates with 5% sheep blood (Becton, Dickinson, and Co., Sparks, Md.) and grown for 24 hr. at 37° C. The MBC was taken to be the lowest VPA concentration at which no colonies were observed.

[2] = system: S. epidermidis ATCC 12228; assay: Minimum inhibitory concentration (MIC), broth dilution method; assay type: cell-based, Staphylococcus epidermidis
Experimental: The minimum inhibitory concentration (MIC) and minimum bactericidal concentration (MBC) of the monomer were determined by the broth dilution method. Various amounts of VPA were added to 1 mL of brain heart infusion media (BHI) (Becton, Dickinson, and Co., Sparks, Md.) along with 1×10^5 cfu of S. epidermidis ATCC 12228 (MicroBiologics, Inc., St. Cloud, Minn.) using aseptic technique. Cultures were incubated for 24 hr. at 37° C. The MIC was taken to be the lowest VPA concentration at which no turbidity was observed.

Row | Compound | MBC ([1]; Staphylococcus epidermidis, ATCC12228) | MIC (lowest concentration at which no turbidity was observed) ([2]; 1×10^5 cfu in 1 mL BHI, 24 hr at 37° C, mean ±std. dev.) | MIC ([2]; S. epidermidis ATCC 12228, broth dilution) | MBC (lowest concentration at which no colonies were observed) ([1]; 10 μL plated on TSA 5% sheep blood, 24 hr at 37° C, mean ±std. dev.) | MBC ([1]; S. epidermidis ATCC 12228)
1 | CN[C@H](CC(C)C)C(=O)N[C@H]1C(=O)N[C@@H](CC(N)=O)C(=O)N[C@H]2C(=O)N[C@H]3C(=O)N[C@H](C(=O)N[C@H](C(=O)O)c4cc(O)cc(O)c4-c4cc3ccc4O)[C@H](O)c3ccc(c(Cl)c3)Oc3cc2cc(c3O[C@@H]2O[C@H](CO)[C@@H](O)[C@H](O)[C@H]2O[C@H]2C[C@](C)(N)[C@H](O)[C@H](C)O2)Oc2ccc(cc2Cl)[C@H]1O [vancomycin, reference compound] | 1.12 ± 0.04 µM (≈ 1.62 µg/mL) |  |  |  | 
2 | vancomycin-PEG(3400)-acrylate [VPA] |  | 11.5 ± 0.8 µg/mL | 2.35 ± 0.15 µM | 15 ± 1 µg/mL | 3.0 ± 0.2 µM

Reference: patent US20080107707A1, “POLYMERIZABLE ANTIMICROBIAL COMPOSITION” (REGENTS OF THE UNIVERSITY OF COLORADO, priority 2006, published 2008)
